# Reference: patent US20230241029A1, “METHODS OF REDUCING POST-SURGICAL METASTASIS” (priority 2018, published 2023)
# Tests used:
# [1] = test system: B16F10 melanoma cells; settings: wild type mice with PVA sponges; HDC 1,500 μg/mouse i.p. thrice weekly for 2 weeks; foci counted 3 weeks after B16F10 injection; p<0.0001, n=10
# Procedure: (§1) To mimic the wounding inflammation associated with surgery, sterile polyvinyl alcohol (PVA) sponges (1 cm^2 with a thickness of 2 mm) were implanted subcutaneously to wild type C57BL/6 and Nox2−/− mice (mouse strain B6.129S6-Cybbtm1Din, obtained from the Jackson Laboratory) aiming to induce tissue inflammation.
# (§2) Mice received intraperitoneal injections of the NOX2-inhibitor HDC (1,500 μg/mouse) thrice weekly for 2 weeks starting two days before implantation of sponges.
# [2] = test system: intracellular reactive oxygen species in CD11b+LyC6+ inflammatory monocytes; settings: sponge-bearing wild type mice; HDC 1,500 μg/mouse i.p. thrice weekly; DCFDA, one week after implantation
# Procedure: The values were normalized against those of unwounded control mice on each collection day.
# as §1, §2
# One week after implantation of sponges, before injection of melanoma cells, peripheral blood was drawn from vena saphena of wild type and Nox2−/− mice. Blood cells were stained for CD11b and Ly6C using fluorochrome-conjugated antibodies and with DCFDA to detect content of intracellular reactive oxygen species. The content of CD11b+LyC6+inflammatory monocytes in blood and their levels of intracellular radicals was determined using flow cytometry.
smiles,measurement,setting,value
"Cl.Cl.NCCc1c[nH]cn1 [HDC, histamine dihydrochloride]",formation of metastases (metastatic foci in lungs) during surgical/wounding-induced inflammation,[1],significantly reduced
same,ROS levels in blood inflammatory monocytes,[2],trend towards reduced ROS levels
